Earlier results as cited in patent US12648914B2, “Injectable sustained release composition and method of using the same for treating inflammation in joints and pain associated therewith” (priority 2013, dated 2026).

Assays:
[1] = reported, Möllmann et al. 1998, after inhaled administration
[2] = human subjects, 40 mg

SMILES | EC50 [1] [ng/mL] | release profile after intra-articular administration [2]
CCC(=O)O[C@]1(C(=O)SCF)[C@H](C)C[C@H]2[C@@H]3C[C@H](F)C4=CC(=O)C=C[C@]4(C)[C@@]3(F)[C@@H](O)C[C@@]21C [fluticasone propionate] | 0.007 to 0.03 | 
CC(C)(C)CC(=O)OCC(=O)[C@@]12OC(C)(C)O[C@@H]1C[C@H]1[C@@H]3CCC4=CC(=O)C=C[C@]4(C)[C@@]3(F)[C@@H](O)C[C@@]12C [triamcinolone hexacetonide] |  | significant initial burst followed by rapid decline
